According to ChEMBL document CHEMBL3091457, “Design, synthesis, and biological activities of novel hexahydropyrazino[1,2-a]indole derivatives as potent inhibitors of apoptosis (IAP) proteins antagonists with improved membrane permeability across MDR1 expressing cells” (Bioorg Med Chem, 2013):

Legend:
[1] = biological target: T1, MDR1 (ABCB1, P-glycoprotein) (Homo sapiens, UniProt P08183); experiment: Activity at human MDR1 expressed in pig LLC-PK1 cells assessed as apparent permeability at 10 umol/L after 2 hrs by LC-MS/MS analysis; format: ADME, cell-based
[2] = biological target: T1, MDR1 (ABCB1, P-glycoprotein); experiment: Activity at human MDR1 expressed in pig LLC-PK1 cells assessed as efflux ratio of permeability from basolateral to apical side over apical to basolateral side at 10 umol/L after 2 hrs by LC-MS/MS analysis; format: ADME, cell-based
MDA-MB-231 = experiment: Growth inhibition of human MDA-MB-231 cells after 72 hrs by CellTiter-Glo assay; format: functional; details: MDA-MB-231, 72 h

T1 sequence (P08183 whole entry): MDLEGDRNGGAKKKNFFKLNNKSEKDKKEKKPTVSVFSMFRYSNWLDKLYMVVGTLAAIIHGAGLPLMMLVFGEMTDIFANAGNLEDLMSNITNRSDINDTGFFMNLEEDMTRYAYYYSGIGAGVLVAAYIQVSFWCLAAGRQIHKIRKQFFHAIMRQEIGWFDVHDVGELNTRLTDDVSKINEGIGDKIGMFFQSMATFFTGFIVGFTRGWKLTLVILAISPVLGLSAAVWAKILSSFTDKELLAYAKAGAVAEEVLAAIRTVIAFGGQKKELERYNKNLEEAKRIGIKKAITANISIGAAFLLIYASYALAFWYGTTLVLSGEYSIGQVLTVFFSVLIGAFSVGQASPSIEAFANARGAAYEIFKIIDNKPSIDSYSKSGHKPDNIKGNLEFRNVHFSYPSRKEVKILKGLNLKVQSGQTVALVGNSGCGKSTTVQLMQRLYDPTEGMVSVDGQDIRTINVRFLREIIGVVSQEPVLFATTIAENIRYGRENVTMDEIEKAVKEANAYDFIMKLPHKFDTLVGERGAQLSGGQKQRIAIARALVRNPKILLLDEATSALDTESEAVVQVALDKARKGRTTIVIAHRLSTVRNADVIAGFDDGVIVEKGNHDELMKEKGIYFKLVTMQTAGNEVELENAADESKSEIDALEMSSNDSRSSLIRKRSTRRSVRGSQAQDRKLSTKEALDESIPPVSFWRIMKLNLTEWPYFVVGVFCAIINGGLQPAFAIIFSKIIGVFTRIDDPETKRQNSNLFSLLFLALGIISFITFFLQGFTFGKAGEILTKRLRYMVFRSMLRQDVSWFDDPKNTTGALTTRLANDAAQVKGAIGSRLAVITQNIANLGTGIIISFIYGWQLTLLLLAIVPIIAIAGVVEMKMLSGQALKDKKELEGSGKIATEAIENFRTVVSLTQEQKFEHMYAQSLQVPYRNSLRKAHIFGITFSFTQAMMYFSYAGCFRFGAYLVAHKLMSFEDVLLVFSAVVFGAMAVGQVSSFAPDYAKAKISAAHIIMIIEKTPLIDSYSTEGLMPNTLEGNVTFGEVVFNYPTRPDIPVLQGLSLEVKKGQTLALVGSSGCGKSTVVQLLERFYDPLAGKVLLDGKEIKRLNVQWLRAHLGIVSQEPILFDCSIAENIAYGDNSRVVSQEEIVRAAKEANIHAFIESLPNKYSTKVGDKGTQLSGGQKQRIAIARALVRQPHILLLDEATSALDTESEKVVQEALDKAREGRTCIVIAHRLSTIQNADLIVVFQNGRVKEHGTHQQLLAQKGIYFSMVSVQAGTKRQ

Row | Structure (SMILES) | Papp at 2 h, 10 µM [1] | efflux ratio at 2 h, 10 µM [2] | GI50 (MDA-MB-231)
1 | CCO[C@@H]1C[C@@H]2CN(C(=O)[C@@H](NC(=O)[C@H](C)NC)C3CCC(F)(F)CC3)[C@H](C(=O)N[C@@H]3CCOc4ccccc43)CN2C1 | 0.1 ×10⁻⁶ cm/s | 24 | –
2 | CN[C@@H](C)C(=O)N[C@H](C(=O)N1C[C@H]2CCCN2C[C@H]1C(=O)N[C@@H]1CCOc2ccccc21)C1CCCCC1 | 0.5 ×10⁻⁶ cm/s | – | 5.7 nM
3 | CN[C@@H](C)C(=O)N[C@H](C(=O)N1C[C@H]2Cc3ccccc3N2C[C@H]1C(=O)N[C@@H]1CCOc2ccccc21)C1CCCCC1 | 4.1 ×10⁻⁶ cm/s | – | 15 nM
4 | CC[C@H](NC)C(=O)N[C@H](C(=O)N1C[C@@H]2Cc3cc(Cl)cc(Cl)c3N2C[C@H]1C(=O)N[C@@H]1CCOc2ccccc21)C1CCCCC1 | 7.5 ×10⁻⁶ cm/s | – | 5.9 nM
5 | CC[C@H](NC)C(=O)N[C@H](C(=O)N1C[C@@H]2Cc3cc(Cl)ccc3N2C[C@H]1C(=O)N[C@@H]1CCOc2ccccc21)C1CCCCC1 | 6.4 ×10⁻⁶ cm/s | – | –
6 | CC[C@H](NC)C(=O)N[C@H](C(=O)N1C[C@@H]2Cc3cc(C#N)ccc3N2C[C@H]1C(=O)N[C@@H]1CCOc2ccccc21)C1CCCCC1 | 1.4 ×10⁻⁶ cm/s | – | 1.9 nM
7 | CN[C@@H](C)C(=O)N[C@H](C(=O)N1C[C@@H]2CCCN2C[C@H]1C(=O)N[C@@H]1CCOc2ccccc21)C1CCCCC1 | 0.3 ×10⁻⁶ cm/s | – | 13 nM
8 | CC[C@H](NC)C(=O)N[C@H](C(=O)N1C[C@H]2CCCN2C[C@H]1C(=O)N[C@@H]1CCOc2ccccc21)C1CCCCC1 | – | – | 4.6 nM
9 | CC[C@H](NC)C(=O)N[C@H](C(=O)N1C[C@@H]2Cc3ccccc3N2C[C@H]1C(=O)N[C@@H]1CCOc2ccccc21)C1CCCCC1 | 2.5 ×10⁻⁶ cm/s | – | 1.8 nM
10 | CC[C@H](NC)C(=O)N[C@H](C(=O)N1C[C@H]2Cc3ccccc3N2C[C@H]1C(=O)N[C@@H]1CCOc2ccccc21)C1CCCCC1 | 8.6 ×10⁻⁶ cm/s | – | 4.4 nM
